Source: publication PMC7436013, “Design, Synthesis, and Biological Investigation of Novel Classes of 3-Carene-Derived Potent Inhibitors of TDP1” (Molecules, 2020)
“Also recorded” adds a separate entry of the source.

Assays:
[1] = test system: in vivo Parkinson model; details: ref [24]; cited from earlier work
[2] = target: T1, TDP1 (Homo sapiens, UniProt Q9NUW8); test: Real-time detection of TDP1 activity with fluorescent oligonucleotide biosensor; type: biochemical; details: for IC50: real-time fluorescent oligonucleotide biosensor, 1.5 nM TDP1, 50 nM substrate, read-out: IC50, TDP1 inhibition
T1 construct: made in house; host or cells: Escherichia coli
Procedure: The compounds synthesized starting from (+)-3-carene 8 were tested for their TDP1 inhibitory properties by measuring their IC50 values using a real-time fluorescent oligonucleotide biosensor [38].
A fluorophore quencher-coupled oligonucleotide biosensor was used for TDP1 enzyme activity real-time fluorescence detection. […] Recombinant protein TDP1 was expressed in Escherichia coli (pET 16B plasmid containing TDP1 cDNA was provided by Dr. K.W. Caldecott, University of Sussex, United Kingdom) and isolated as described by Lebedeva et al.. The reaction mixture contained TDP1 reaction buffer (50 mM Tris-HCl, 50 mM NaCl, 7 mM β-mercaptoethanol), 50 nM oligonucleotide substrate, varied concentrations of the tested compounds, and 1.5 nM purified TDP1 in a final volume of 200 μL.
The TDP1 reaction mixture was incubated at rt in a POLARstar OPTIMA fluorimeter (BMG LABTECH, GmbH). Fluorescence intensity was measured every 1 min (Ex485/Em520 nm). The efficiency of TDP1 inhibition was evaluated by comparing the rate of increase in the fluorescence of the biosensor in the presence of the compound to that of DMSO (1.5%) control wells. IC50 values were determined using an 11-point concentration–response curve. The data were imported into MARS Data Analysis 2.0 program (BMG LABTECH) and the slope during the linear phase was calculated. The IC50 measurements were carried out in at least three independent experiments.

[3] = ref [24]; cited from earlier work
[4] = test system: HCT116 (human colon cancer); test: Colorimetric cytotoxicity test, HCT116; type: cell-based
Procedure: (§1) The cytotoxicity of the compounds was examined against human cell lines HEK293FT (human embryonic kidney), WT and TDP1-deficient (TDP1-/-), HCT116 (human colon cancer), IMR-32 (human neuroblastoma cell line), HeLa (cervical cancer), and Krebs-2 carcinoma ascites using MTT and EZ4U colorimetric tests or an xCELLigence DP Real-Time Cell Analyzer (ACEA Biosciences, San Diego, CA, USA) for HEK293FT in cells exposed to the compounds. The cells were grown in DMEM/F12 or IMDM (for IMR-32 and Krebs-2) medium (Gibco), with 1x GlutaMAX (Gibco), 50 IU/mL penicillin, 50 μg/mL streptomycin (MP Biomedicals, Irvine, CA, USA) and in the presence of 10% fetal bovine serum (Biolot). The cells (~20,000 cells per well) were incubated for 24 h at 37 °C in 5% CO2, and then treated with the tested compounds (the volume of the added reagents was 1/100 of the total volume of the culture medium, the amount of DMSO was 1% of the final volume as indicated). Control cells were grown in the presence of 1% DMSO where indicated. After 72 h of cell incubation, the relative amount of living cells was determined using a colorimetric test of the amount of formazan converted from 3-(4,5-dimethylthiazol-2-yl)-2,5-diphenyl-2H-tetrazolium bromide (MTT test) or EZ4U Cell Proliferation and Cytotoxicity Assay (Biomedica, Austria), as per the manufacturer’s protocols. The real-time detection of the living cells was done by an xCELLigence DP Real-Time Cell Analyzer (ACEA Biosciences). The measurements were carried out in three parallel experiments.

[5] = test system: HEK293FT TDP1−/− cells; test: Colorimetric cytotoxicity test (MTT/EZ4U), HEK293FT TDP1-/-; type: cell-based, human; details: Tpc 30 nM
Procedure: (§2) We analyzed, using a colorimetric test, the relative amount of viable cells after treating HEK293FT WT and TDP1-deficient (TDP1−/−) cells with increasing concentrations of Tpc for 72 h. […] Next, we studied WT and mutant cells’ live activity after Tpc treatment on the xCELLigence System (ACEA Biosciences, USA) by the impedance-based assay. HEK293FT TDP1−/− cells were more sensitive to Tpc (Figure 2B). After Tpc administration to the cells, an […] of the slope was seen, characterizing the velocity of the cell growth with Tpc as compared to the control both for WT (red columns) and mutant cells (green columns) (Figure S1, Supplementary Materials). […] The sharper decrease of the slope for the mutant cells than for the WT (compare the histogram for the 0 and 0.05 μM Tpc concentration, ~1.5 times for WT cells (red) and ~6 times for TDP1−/−cells (green)) also characterizes the higher sensitivity of the mutant to the TOP1 inhibitor. […] There was a three-fold difference for these IC50 values, which is nearly the same as for the colorimetric assay.
as §1

[6] = test system: IMR-32 (human neuroblastoma cell line); test: Colorimetric cytotoxicity test, IMR-32; type: cell-based
Procedure: as §1

[7] = test system: HEK293FT WT cells; test: Colorimetric cytotoxicity test (MTT/EZ4U), HEK293FT WT; type: cell-based, human; details: Tpc 200 nM
Procedure: as §2, §1

[8] = test system: HeLa (cervical carcinoma); test: Colorimetric cytotoxicity test, HeLa; type: cell-based, human
Procedure: as §1

[9] = test system: Krebs-2 carcinoma cells; test: Colorimetric cytotoxicity test, Krebs-2; type: cell-based
Procedure: as §1, with “The real-time detection of the living cells was done by an xCELLigence DP Real-Time Cell Analyzer (ACEA Biosciences). The measurements were carried out in three parallel experiments.” left out

T1 sequence (Q9NUW8 whole entry): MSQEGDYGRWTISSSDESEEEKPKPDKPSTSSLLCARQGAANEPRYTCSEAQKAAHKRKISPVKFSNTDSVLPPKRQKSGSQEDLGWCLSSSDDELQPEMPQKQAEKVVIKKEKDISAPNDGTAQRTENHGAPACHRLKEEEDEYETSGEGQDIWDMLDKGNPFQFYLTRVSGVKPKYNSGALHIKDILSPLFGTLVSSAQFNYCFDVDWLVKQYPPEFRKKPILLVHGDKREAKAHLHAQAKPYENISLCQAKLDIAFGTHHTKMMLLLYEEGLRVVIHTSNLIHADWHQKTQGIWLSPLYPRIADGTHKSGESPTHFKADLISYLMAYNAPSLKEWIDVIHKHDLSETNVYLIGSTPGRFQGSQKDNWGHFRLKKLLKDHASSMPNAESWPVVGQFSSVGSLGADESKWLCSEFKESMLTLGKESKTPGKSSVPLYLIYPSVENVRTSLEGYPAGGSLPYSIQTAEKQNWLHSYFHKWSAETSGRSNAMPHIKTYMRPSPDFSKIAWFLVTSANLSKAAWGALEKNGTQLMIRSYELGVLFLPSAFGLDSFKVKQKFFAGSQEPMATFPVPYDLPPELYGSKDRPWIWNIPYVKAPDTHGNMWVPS

Compound | activity against TDP1 (in words) [2] | IC50 [2] | further results
COc1cc(C2OC(C)(C)[C@@H]3CCC(C)=C[C@H]23)ccc1O (mixture of isomers) [11a] | do not exhibit activity | > 20 µM | neuroprotective activity [1]: potent neuroprotective activity; acute toxicity [3]: low acute toxicity
C/C=C/C1OC(C)(C)[C@@H]2CCC(C)=C[C@H]12 (some centres unmarked) [11c] | do not exhibit activity | > 20 µM | 
CC1=C[C@@H]2[C@@H](c3cccs3)OC(C)(C)[C@@H]2CC1 [11d, (1S,3aR,7aS)-3,3,6-trimethyl-1-(thiophen-2-yl)-1,3,3a,4,5,7a-hexahydroisobenzofuran] |  | 4.85 ± 1.06 µM | 
CC1=C[C@@H]2[C@@H](c3sccc3C)OC(C)(C)[C@@H]2CC1 [11e, (1S,3aR,7aS)-3,3,6-trimethyl-1-(3-methylthiophen-2-yl)-1,3,3a,4,5,7a-hexahydroisobenzofuran] |  | 3.6 ± 1.7 µM | 
CC1=C[C@@H]2[C@@H](c3ccc(C)s3)OC(C)(C)[C@@H]2CC1 [11f, (1S,3aR,7aS)-3,3,6-trimethyl-1-(5-methylthiophen-2-yl)-1,3,3a,4,5,7a-hexahydroisobenzofuran] |  | 4.7 ± 2 µM | 
CC1=C[C@@H]2[C@@H](c3ccc(Br)s3)OC(C)(C)[C@@H]2CC1 [11h, (1S,3aR,7aS)-3,3,6-trimethyl-1-(5-bromothiophen-2-yl)-1,3,3a,4,5,7a-hexahydroisobenzofuran] |  | 0.75 ± 0.07 µM | intrinsic cytotoxicity ([4]; HCT116): low; dose-dependent action of Tpc in the presence of inhibitor ([4]; HCT116, Figure 4C): enhanced Tpc’s potency; dose-dependent action of inhibitor in the presence of Tpc on cell growth ([4]; HCT, Tpc 900 nM, Figure 4B): no effect; effect of TDP1 inhibitor in conjunction with Tpc on cell growth [5]: not found; also recorded: no effect; intrinsic cytotoxicity ([6]; IMR-32): low; dose-dependent action of Tpc in the presence of inhibitor ([6]; IMR-32, Figure 4C): synergistic action; dose-dependent action of inhibitor in the presence of Tpc on cell growth ([6]; IMR-32, Tpc 8 nM, Figure 4B): suppressed cell growth; effect of TDP1 inhibitor in conjunction with Tpc on cell growth [7]: cell growth suppression; also recorded: synergistic effect; also recorded: Suppressed cell growth; intrinsic cytotoxicity [8]: low; enhancement of the Tpc cytotoxicity ([8]; data not shown): no enhancement; intrinsic cytotoxicity [9]: low
CC1=C[C@@H]2[C@@H](c3ccsc3)OC(C)(C)[C@@H]2CC1 [11k, (1S(R),3aR,7aS)-3,3,6-trimethyl-1-(thiophen-3-yl)-1,3,3a,4,5,7a-hexahydroisobenzofuran] |  | 1.6 ± 0.56 µM | 
COc1cc(C2OC(C)(C)C3CC=C(C)C2C3)ccc1O (centres unmarked) [12a] | do not exhibit activity | > 20 µM | 
CC1=CC[C@@H]2C[C@H]1[C@H](c1cccs1)OC2(C)C [12d, (1R,4R,5R)-2,2,6-trimethyl-4-(thiophen-2-yl)-3-oxabicyclo[3.3.1]non-6-ene] |  | 3.35 ± 1.06 µM | 
CC1=CC[C@@H]2C[C@H]1[C@H](c1sccc1C)OC2(C)C [12e, (1R,4R,5R)-2,2,6-trimethyl-4-(3-methylthiophen-2-yl)-3-oxabicyclo[3.3.1]non-6-ene] |  | 2.25 ± 0.63 µM | 
